Test results published in article PMC4139942 (Scientific Reports, 2014).

Experiments:
AD brain samples = conditions: cited from earlier work
amylin aggregates = amylin aggregates (Homo sapiens, UniProt P10997); format: binding
Chain of amylin aggregates (P10997 34-70): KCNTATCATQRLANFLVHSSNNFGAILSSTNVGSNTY

In the case of `CNc1ccc(/C=C/c2ccc(OCCOCCOCCF)nc2)cc1` [AV-45, (E)-4-(2-(6-(2-(2-(2-fluoroethoxy)ethoxy)ethoxy)pyridin-3-yl)vinyl)-N-methylaniline], the Ki (AD brain samples) is listed as 6.7 nM and the Ki (amylin aggregates) is listed as 501 ± 40.8 nM.
